Where two headings read alike, the source gives them in different places.
Legend:
[1] = system: LNCaP prostate cancer cell; assay: LNCaP cell viability (CellTiter-Glo); format: cell-based; conditions: Homo sapiens, 72 h, LNCaP cell viability, 3 days, CellTiter-Glo
Description: LNCaP cells seeded in 96-well plates were treated with 10 μM GNE-781 or selected bivalent compounds, i.e. P-001, P-002, and P-019, following a 12-point 3-fold serial dilution. Three days after treatment, cell viability was determined using the CellTiter-Glo kit (Promega) following manufacturer's instructions. Cell viability was normalized to the mean values of 3 replicates of untreated cells. Dose-dependent response was analyzed following the least-squares non-linear regression method using the GraphPad Prism 5.0 software.
LNCaP (clone FGC), 22RV1 and other cells were cultured at 37° C. with 5% CO 2 in RPMI 1640 Medium supplemented with 10% fetal bovine serum. Cells were authenticated using the short tandem repeat (STR) assays. Mycoplasma test results were negative.
Cells were seeded at a density of 5000 cells per well in 96-well assay plates and treated with test compounds following a 12-point 3-fold serial dilution. Three days later, cell viability was determined using the CellTiter-Glo assay kit according to the manufactureR's instructions. The dose-response curves were determined and IC50 values were calculated using the GraphPad Prism software following a nonlinear regression (least squares fit) method.

P300 = P300 (Homo sapiens, UniProt Q09472); assay: percentage of inhibition (degradation) of p300 at 10 nM, Tables 2-4; format: cell-based; parameters: LNCaP or 22RV1 cells that express CBP/P300 proteins were treated with GNE-781 or the bivalent compounds; endogenous in cells; host or cells: LNCaP or 22RV1 (not given); conditions: p300, 10 nM; for inhibition at 0.01 µM: read-out: Degradation (10 nM)
P300, sequence (Q09472 whole entry): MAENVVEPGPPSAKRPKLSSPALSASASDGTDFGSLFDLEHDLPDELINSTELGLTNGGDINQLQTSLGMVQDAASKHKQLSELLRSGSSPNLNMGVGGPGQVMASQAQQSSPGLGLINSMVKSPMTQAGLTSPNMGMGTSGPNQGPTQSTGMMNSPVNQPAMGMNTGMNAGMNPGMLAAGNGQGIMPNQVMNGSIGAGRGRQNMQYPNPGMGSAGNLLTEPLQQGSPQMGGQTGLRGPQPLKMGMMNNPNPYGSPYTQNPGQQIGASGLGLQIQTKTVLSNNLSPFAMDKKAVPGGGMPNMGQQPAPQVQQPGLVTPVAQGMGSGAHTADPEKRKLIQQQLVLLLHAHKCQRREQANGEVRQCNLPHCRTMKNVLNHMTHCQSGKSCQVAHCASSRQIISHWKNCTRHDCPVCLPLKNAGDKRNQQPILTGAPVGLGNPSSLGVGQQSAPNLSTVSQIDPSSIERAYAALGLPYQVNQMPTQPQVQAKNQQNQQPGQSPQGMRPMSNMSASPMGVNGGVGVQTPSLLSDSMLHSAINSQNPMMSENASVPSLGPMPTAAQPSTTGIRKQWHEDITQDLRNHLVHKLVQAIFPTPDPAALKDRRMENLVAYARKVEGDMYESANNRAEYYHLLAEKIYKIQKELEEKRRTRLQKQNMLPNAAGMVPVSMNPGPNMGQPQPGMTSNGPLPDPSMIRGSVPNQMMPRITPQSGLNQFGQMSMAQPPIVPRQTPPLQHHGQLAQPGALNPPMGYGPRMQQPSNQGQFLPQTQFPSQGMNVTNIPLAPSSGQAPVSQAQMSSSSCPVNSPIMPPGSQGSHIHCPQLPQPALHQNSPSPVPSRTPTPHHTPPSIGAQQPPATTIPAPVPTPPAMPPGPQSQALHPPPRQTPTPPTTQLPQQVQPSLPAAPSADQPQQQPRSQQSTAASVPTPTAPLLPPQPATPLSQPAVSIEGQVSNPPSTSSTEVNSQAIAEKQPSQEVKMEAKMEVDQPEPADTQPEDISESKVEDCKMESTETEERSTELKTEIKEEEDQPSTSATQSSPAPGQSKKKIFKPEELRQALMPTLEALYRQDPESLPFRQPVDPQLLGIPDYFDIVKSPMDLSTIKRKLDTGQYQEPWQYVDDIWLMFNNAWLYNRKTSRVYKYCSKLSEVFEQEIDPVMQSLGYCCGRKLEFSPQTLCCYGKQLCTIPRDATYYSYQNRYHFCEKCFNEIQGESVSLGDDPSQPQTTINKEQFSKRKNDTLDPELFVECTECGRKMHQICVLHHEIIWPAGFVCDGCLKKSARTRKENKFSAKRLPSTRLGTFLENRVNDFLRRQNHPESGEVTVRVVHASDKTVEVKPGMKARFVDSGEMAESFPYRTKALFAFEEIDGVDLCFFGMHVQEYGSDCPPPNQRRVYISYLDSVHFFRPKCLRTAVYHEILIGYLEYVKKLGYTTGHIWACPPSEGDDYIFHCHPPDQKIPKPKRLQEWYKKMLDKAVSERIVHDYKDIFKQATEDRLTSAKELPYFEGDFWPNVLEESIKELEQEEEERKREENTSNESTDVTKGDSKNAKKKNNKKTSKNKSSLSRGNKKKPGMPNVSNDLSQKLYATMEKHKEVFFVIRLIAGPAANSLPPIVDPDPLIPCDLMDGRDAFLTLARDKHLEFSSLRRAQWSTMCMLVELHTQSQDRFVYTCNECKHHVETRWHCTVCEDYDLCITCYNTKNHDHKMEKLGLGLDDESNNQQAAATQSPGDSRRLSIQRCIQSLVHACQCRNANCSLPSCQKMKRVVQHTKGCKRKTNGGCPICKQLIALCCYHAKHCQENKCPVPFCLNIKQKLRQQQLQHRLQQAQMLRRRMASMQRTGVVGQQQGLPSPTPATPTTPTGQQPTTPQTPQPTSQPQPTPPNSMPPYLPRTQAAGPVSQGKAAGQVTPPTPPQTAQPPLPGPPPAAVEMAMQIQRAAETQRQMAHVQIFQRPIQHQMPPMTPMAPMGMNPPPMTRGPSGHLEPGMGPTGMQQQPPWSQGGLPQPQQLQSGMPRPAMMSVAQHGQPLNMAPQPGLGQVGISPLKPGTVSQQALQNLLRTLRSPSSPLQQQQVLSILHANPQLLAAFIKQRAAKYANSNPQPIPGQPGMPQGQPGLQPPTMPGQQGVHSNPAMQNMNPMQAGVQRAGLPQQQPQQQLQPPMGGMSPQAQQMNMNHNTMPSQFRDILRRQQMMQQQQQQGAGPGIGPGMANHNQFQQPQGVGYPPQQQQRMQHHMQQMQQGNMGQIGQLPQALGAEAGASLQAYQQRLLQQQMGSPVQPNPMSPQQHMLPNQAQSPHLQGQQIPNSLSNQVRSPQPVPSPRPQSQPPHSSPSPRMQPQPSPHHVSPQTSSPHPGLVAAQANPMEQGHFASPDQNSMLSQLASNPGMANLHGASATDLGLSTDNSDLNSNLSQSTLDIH
Description: Cultured cells or tissue chunks were washed with cold PBS once and lysed in cold RIPA buffer supplemented with protease inhibitors and phosphatase inhibitors (Beyotime Biotechnology). The solutions were then incubated at 4° C. for 30 minutes with gentle agitation to fully lyse cells. Cell lysates were centrifuged at 13,000 rpm for 10 minutes at 4° C. and pellets were discarded. Total protein concentrations in the lysates were determined by BCA assays (Beyotime Biotechnology). Cell lysates were mixed with Laemmli loading buffer to 1 X and heated at 99° C. for 5 min. Proteins were resolved on SDS-PAGE and visualized by chemiluminescence. Images were taken by a ChemiDoc MP Imaging system (Bio-Rad). Protein bands were quantitated using the accompanied software provided by Bio-Rad.

| Compound | IC50 ([1]; Table 4) | inhibition at 0.01 µM (P300; Table 4) | other results |
| --- | --- | --- | --- |
| CC(=O)N1CCc2c(c(N3CCCc4cc(-c5cnn(C)c5)c(C(F)F)cc43)nn2C2CCN(C(=O)CCN3CCC(CNc4ccc5c(c4)n(C)c(=O)n5C4CCC(=O)NC4=O)CC3)CC2)C1 (stereo not drawn) [P-218, 3-(5-(((1-(3-(4-(5-Acetyl-3-(7-(difluoromethyl)-6-(1-methyl-1H-pyrazol-4-yl)-3,4-dihydroquinolin-1(2H)-yl)-4,5,6,7-tetrahydro-1H-pyrazolo[4,3-c]pyridin-1-yl)piperidin-1-yl)-3-oxopropyl)piperidin-4-yl)methyl)amino)-3-methyl-2-oxo-2,3-dihydro-1H-benzo[d]imidazol-1-yl)piperidine-2,6-dione] | 0.0187 µM | > 80% |  |
| CC(=O)N1CCc2c(c(N3CCCc4cc(-c5cnn(C)c5)c(C(F)F)cc43)nn2C2CCN(CCN3CCC(CNc4cccc5c4C(=O)N(C4CCC(=O)NC4=O)C5=O)CC3)CC2)C1 (stereo not drawn) [P-143, 4-(((1-(2-(4-(5-acetyl-3-(7-(difluoromethyl)-6-(1-methyl-1H-pyrazol-4-yl)-3,4-dihydroquinolin-1(2H)-yl)-4,5,6,7-tetrahydro-1H-pyrazolo[4,3-c]pyridin-1-yl)piperidin-1-yl)ethyl)piperidin-4-yl)methyl)amino)-2-(2,6-dioxopiperidin-3-yl)isoindoline-1,3-dione] |  |  | IC50 ([1]; Table 3): 0.0015 µM; Degradation (10 nM) (P300; Table 3): A (A: Degradation ≥ 80%) |
| CNC(=O)N1CCc2c(c(N3CCCc4cc(-c5cnn(C)c5)c(C(F)F)cc43)nn2C2CCN(C(=O)CNc3cccc4c3C(=O)N(C3CCC(=O)NC3=O)C4=O)CC2)C1 (stereo not drawn) [P-013, 3-(7-(difluoromethyl)-6-(1-methyl-1H-pyrazol-4-yl)-3,4-dihydroquinolin-1(2H)-yl)-1-(1-((2-(2,6-dioxopiperidin-3-yl)-1,3-dioxoisoindolin-4-yl)glycyl)piperidin-4-yl)-N-methyl-1,4,6,7-tetrahydro-5H-pyrazolo[4,3-c]pyridine-5-carboxamide] |  |  | inhibition at 0.01 µM (P300; Table 2): 20 to 50% |
| CNC(=O)N1CCc2c(c(N3CCCc4cc(-c5cnn(CC(=O)NCCCCCCCCCC(=O)NC(C(=O)N6C[C@H](O)CC6C(=O)NCc6ccc(-c7scnc7C)cc6)C(C)(C)C)c5)c(C(F)F)cc43)nn2C2CCOCC2)C1 (stereo in doubt) [P-049, 3-(7-(difluoromethyl)-6-(1-(2-((10-(((S)-1-((2S,4R)-4-hydroxy-2-((4-(4-methylthiazol-5-yl)benzyl)carbamoyl)pyrrolidin-1-yl)-3,3-dimethyl-1-oxobutan-2-yl)amino)-10-oxodecyl)amino)-2-oxoethyl)-1H-pyrazol-4-yl)-3,4-dihydroquinolin-1(2H)-yl)-N-methyl-1-(tetrahydro-2H-pyran-4-yl)-1,4,6,7-tetrahydro-5H-pyrazolo[4,3-c]pyridine-5-carboxamide] |  |  | IC50 ([1]; Table 2): 0.234 µM |

Second part, led by results:

| IC50 ([1]; Table 4) | inhibition at 0.01 µM (P300; Table 4) | Compound | other results |
| --- | --- | --- | --- |
| 0.0268 µM | 20 to 50% | CC(=O)N1CCc2c(c(N3CCCc4cc(-c5cnn(C)c5)c(C(F)F)cc43)nn2C2CCN(C(=O)CCN3CCN(Cc4ccc5c(c4)n(C)c(=O)n5C4CCC(=O)NC4=O)CC3)CC2)C1 (stereo not drawn) [P-216, 3-(5-((4-(3-(4-(5-Acetyl-3-(7-(difluoromethyl)-6-(1-methyl-1H-pyrazol-4-yl)-3,4-dihydroquinolin-1(2H)-yl)-4,5,6,7-tetrahydro-1H-pyrazolo[4,3-c]pyridin-1-yl)piperidin-1-yl)-3-oxopropyl)piperazin-1-yl)methyl)-3-methyl-2-oxo-2,3-dihydro-1H-benzo[d]imidazol-1-yl)piperidine-2,6-dione] |  |
| 0.241 µM |  | CC(=O)N1CCc2c(c(N3CCCc4cc(-c5cnn(C)c5)c(C(F)F)cc43)nn2C2CCN(CCCCN3CCN(c4cccc5c4C(=O)N(C4CCC(=O)NC4=O)C5=O)CC3)CC2)C1 (stereo not drawn) [P-248, 4-(4-(4-(4-(5-Acetyl-3-(7-(difluoromethyl)-6-(1-methyl-1H-pyrazol-4-yl)-3,4-dihydroquinolin-1(2H)-yl)-4,5,6,7-tetrahydro-1H-pyrazolo[4,3-c]pyridin-1-yl)piperidin-1-yl)butyl)piperazin-1-yl)-2-(2,6-dioxopiperidin-3-yl)isoindoline-1,3-dione] |  |

From patent US20240100170A1, “CYCLIC-AMP RESPONSE ELEMENT BINDING PROTEIN (CBP) AND/OR ADENOVIRAL E1A BINDING PROTEIN OF 300 KDA (P300) DEGRADATION COMPOUNDS AND METHODS OF USE” (CULLGEN (SHANGHAI), INC., priority 2020, published 2024)
